Where “and” joins values, the source holds several entries; their conditions need not be identical. Equal entries are not always repeated. Marks after values point to notes of the source that are not given here.
Assays:
Test in all cases: Checkerboard assay (FIC index)
CA-MRSA = format: cell-based, Staphylococcus aureus
Experimental: (§1) Checkerboard assays were carried out as described by Bonapace et al.
(§2) Diagnostic Microbiology and Infectious Diseases 2002; 44:363-366. In brief, checkerboard assays were performed in 96 well microtitre trays using an 8-by-8 well configuration. […] 96-well custom designed microtitre plates contained 100 ul/well of cation adjusted Mueller-Hinton broth (eg. for Enterobacteriaceae) with or without lysed horse blood (2-5% V/V) [eg. for S. pneumoniae] and were inoculated to achieve a final concentration of approximately 5×10^5 CFU/ml and incubated in ambient air for 24 hours prior to reading. Colony counts were performed periodically to confirm inocula. Quality control was performed every two weeks using a variety of ATCC QC organisms including; S. pneumoniae 49619, S. aureus 29213, E. faecalis 29212, E. coli 25922 and P. aeruginosa 27853. […] All peptides were assessed for synergy with β-lactams and vancomycin. For all antimicrobials as well as the peptides, CLSI criteria were used.
(§3) The fractional inhibitory concentration index (FIC index) was used to interpret synergy, antagonism or additivity/indifference. FIC index=FIC of drug A+FIC of drug B where:
(§4) The FIC of drug A and drug B was calculated as follows, FIC drug A=MIC of drug A in combination/MIC of drug A alone and FIC of drug B=MIC of drug B in combination/MIC of drug B alone. Synergy was defined as FIC index ≦0.5, additivity/indifference defined as a FIC between 0.5 and 4 and antagonism defined as an FIC index >4.
(§5) The fractional inhibitory concentration index (FIC index) was used to interpret synergy, antagonism or additivity/indifference. FIC index=FIC of drug A+FIC of drug B where the FIC of drug A and drug B was calculated as follows, FIC drug A=MIC of drug A in combination/MIC of drug A alone and FIC of drug B=MIC of drug B in combination/MIC of drug B alone. Synergy was defined as FIC index ≦0.5, additivity/indifference defined as an FIC of between 0.5 and 4 and antagonism defined as an FIC index >4.
(§6) The checkerboard assays were carried out as described by Eliopoulos and Moellering (Chapter 9) in Antibiotic in Laboratory Medicine, Lorian Ed. 1996 as well as Bonapace et al. Diagnostic Microbiology and Infectious Diseases 2002; 44:363-366 and Bonapace et al. Diagnostic Microbiology and Infectious Diseases 2000; 38:43-50. In brief, checkerboard assays were performed in 96 well microtitre trays using an 8-by-8 well configuration. […] 96-well custom designed microtitre plates contained 100 ul/well of cation adjusted Mueller-Hinton broth (eg. for Enterobacteriaceae) with or without lysed horse blood (2-5% V/V) [eg. for S. pneumoniae] and were inoculated to achieve a final concentration of approximately 5×10^5 CFU/ml and incubated in ambient air for 24 hours prior to reading. Colony counts were performed periodically to confirm inocula. Quality control was performed every two weeks using a variety of ATCC QC organisms including; S. pneumoniae 49619, S. aureus 29213, E. faecalis 29212, E. coli 25922 and P. aeruginosa 27853.
(§7) The FIC of drug A and drug B is calculated as follows, FIC drug A=MIC of drug A in combination/MIC of drug A alone and FIC of drug B=MIC of drug B in combination/MIC of drug B alone. Synergy is defined as FIC index ≦0.5, additivity/indifference FIC >0.5-4 and antagonism FIC index >4.
(§8) These agents were obtained as laboratory grade powders from their respective manufacturers. Stock solutions were prepared and dilutions made as described by the Clinical Laboratory Standards Institute (2005 CLSI).

HA-MRSA = format: cell-based, Staphylococcus aureus
Experimental: as §1, §2, §3, §4, §5, §6, §7, §8

VRSA = format: cell-based, Staphylococcus aureus
Experimental: as §1, §2, §3, §4, §5, §6, §7, §8

MSSA = format: cell-based, Staphylococcus aureus
Experimental: as §1, §2, §3, §4
as §6, with “27853. For all antimicrobials as well as PEP35, CLSI criteria was used.” for “27853.”
as §7
(§9) Antimicrobials used included PEP35, cefazolin, ceftriaxone, vancomycin, linezolid, tigecycline and daptomycin versus Gram-positive cocci and PEP35, gentamicin, levofloxacin, piperacillin/tazobactam, meropenem and colistin (Polymyxin E) versus Gram-negative bacilli. These agents were obtained as laboratory grade powders from their respective manufacturers. Stock solutions were prepared and dilutions made as described by the Clinical Laboratory Standards Institute (2005 CLSI).
(§10) Organisms included Gram-positive cocci (2 strains of each): Methicillin-susceptible Staphylococcus aureus (MSSA), community-associated (CA) and healthcare-associated (HA) methicillin-resistant Staphylococcus aureus (MRSA), vancomycin-intermediate Staphylococcus aureus (VISA), vancomycin-resistant Staphylococcus aureus (VRSA), methicillin-resistant Staphylococcus epidermidis (MRSE), Streptococcus pyogenes, Streptococcus agalactiae, Streptococcus pneumoniae, Enterococcus faecalis, Enterococcus faecium and vancomycin-resistant enterococcus (VRE). […]

VISA = format: cell-based, Staphylococcus aureus
Experimental: as §1, §2, §3, §4
as §6, with “27853. For all antimicrobials as well as PEP35, CLSI criteria was used.” for “27853.”
as §7, §9, §10

E. coli = format: cell-based, Escherichia coli
Method in brief: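 Checkerboard 8×8 broth microdilution in cation-adjusted Mueller-Hinton broth at ~5×10^5 CFU/ml, read after 24 h in ambient air, following CLSI criteria. The FIC index is the sum of each drug's MIC in combination divided by its MIC alone: synergy ≤0.5, indifference 0.5–4, antagonism >4.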

[1] = antibiotic combined with PEP35 (added together), CA-MRSA 70857 (USA400)
[2] = β-lactam combined with HybPEP35-1, CA-MRSA 69615 (USA400)
[3] = β-lactam combined with PEP-52, CA-MRSA 69615 (USA400)
[4] = β-lactam combined with Scrambled PEP35, CA-MRSA 69615 (USA400)
[5] = antibiotic combined with PEP35 (added together), HA-MRSA 77090 (USA100/800)
[6] = β-lactam combined with HybPEP35-1, HA-MRSA 70798 (USA100/800)
[7] = β-lactam combined with PEP-52, HA-MRSA 70798 (USA100/800)
[8] = β-lactam combined with Scrambled PEP35, HA-MRSA 70798 (USA100/800)
[9] = antibiotic combined with PEP35 (added together), VRSA 105
[10] = β-lactam combined with HybPEP35-1, VRSA 106
[11] = β-lactam combined with PEP-52, VRSA 106
[12] = β-lactam combined with Scrambled PEP35, VRSA 106
[13] = antibiotic combined with PEP35, MSSA 83424
[14] = β-lactam combined with HybPEP35-1, MSSA 79333
[15] = β-lactam combined with PEP-52, MSSA 79333
[16] = β-lactam combined with Scrambled PEP35, MSSA 79333
[17] = antibiotic combined with PEP35, VISA 92
[18] = antibiotic combined with PEP35, VISA 95
[19] = β-lactam combined with HybPEP35-1, VISA 96
[20] = β-lactam combined with PEP-52, VISA 96
[21] = β-lactam combined with Scrambled PEP35, VISA 96
[22] = antibiotic combined with PEP35, E. coli 69716
[23] = β-lactam combined with HybPEP35-1, E. coli 69716
[24] = β-lactam combined with PEP-52, E. coli 69716
[25] = β-lactam combined with Scrambled PEP35, E. coli 69716

SMILES	Avg ΣFIC (range) (CA-MRSA; [1])	Avg ΣFIC (range) (CA-MRSA; [2])	Avg ΣFIC (range) (CA-MRSA; [3])	Avg ΣFIC (range) (CA-MRSA; [4])	Avg ΣFIC (range) (HA-MRSA; [5])	Avg ΣFIC (range) (HA-MRSA; [6])	Avg ΣFIC (range) (HA-MRSA; [7])	Avg ΣFIC (range) (HA-MRSA; [8])	Avg ΣFIC (range) (VRSA; [10])	Avg ΣFIC (range) (VRSA; [11])	Avg ΣFIC (range) (VRSA; [12])	Avg ΣFIC (range) (MSSA; [14])	Avg ΣFIC (range) (MSSA; [15])	Avg ΣFIC (range) (MSSA; [16])	Avg ΣFIC (range) (VISA; [19])	Avg ΣFIC (range) (VISA; [20])	Avg ΣFIC (range) (VISA; [21])	Avg ΣFIC (range) (E. coli; [23])	Avg ΣFIC (range) (E. coli; [24])	Avg ΣFIC (range) (E. coli; [25])	other results
Cc1nnc(SCC2=C(C(=O)O)N3C(=O)[C@@H](NC(=O)Cn4cnnn4)[C@H]3SC2)s1 [Cefazolin]	0.3 (0.12-0.56) and 0.26 (0.09-0.53)	0.24	>0.5*	0.24	0.30 (0.12-0.56) and 0.24 (0.075-0.53)	0.35	>1*	0.35	0.52	>1*	0.52	0.57	>1*	0.57	0.30	>1*	0.30	1.1	>1*	1.1	Avg ΣFIC (range) (VRSA; [9]): 0.63 (0.5-1.015); Avg ΣFIC (range) (MSSA; [13]): 1.02 (0.75-1.25); Avg ΣFIC (range) (VISA; [17]): 0.33 (0.18-0.53) and 0.45 (0.18-1.015); Avg ΣFIC (range) (VISA; [18]): 0.49 (0.31-0.62) and 0.37 (0.18-0.56); Avg ΣFIC (range) (E. coli; [22]): 1.1
CO/N=C(\C(=O)N[C@@H]1C(=O)N2C(C(=O)O)=C(CSc3nc(=O)c(=O)[nH]n3C)CS[C@H]12)c1csc(N)n1 [Ceftriaxone]	0.51 (0.18-1.015)	0.31	>0.5*	0.31	0.27 (0.09-0.53) and 0.27 (0.09-0.56)	0.32	>1*	0.32	0.39	>1*	0.39	0.98	>1*	0.98	0.26	>1*	0.26	0.41	>1*	0.41	Avg ΣFIC (range) (VRSA; [9]): 0.45 (0.24-0.56) and 0.54 (0.18-1.06); Avg ΣFIC (range) (MSSA; [13]): 0.80 (0.5-1.12); Avg ΣFIC (range) (VISA; [17]): 0.52 (0.28-1.06); Avg ΣFIC (range) (VISA; [18]): 0.28 (0.09-0.56) and 0.37 (0.18-0.56); Avg ΣFIC (range) (E. coli; [22]): 1.04
C[C@@H](O)[C@H]1C(=O)N2C(C(=O)O)=C(S[C@@H]3CN[C@H](C(=O)N(C)C)C3)[C@H](C)[C@H]12 [Meropenem]	–	0.70	>1*	0.70	–	0.38	>1*	0.38	0.91	>1*	0.91	1.11	>1*	1.11	0.45	>1*	0.45	1.21	>1*	1.21	Avg ΣFIC (range) (CA-MRSA; antibiotic combined with PEP35 (added together), CA-MRSA 69615 (USA400)): 0.49; Avg ΣFIC (range) (HA-MRSA; antibiotic combined with PEP35 (added together), HA-MRSA 70798 (USA100/800)): 0.30; Avg ΣFIC (range) (VRSA; antibiotic combined with PEP35 (added together), VRSA 106): 0.91; Avg ΣFIC (range) (MSSA; antibiotic combined with PEP35, MSSA 79333): 0.52; Avg ΣFIC (range) (VISA; antibiotic combined with PEP35, VISA 96): 0.41; Avg ΣFIC (range) (E. coli; antibiotic combined with PEP35, E. coli 70752): 1.21 (1.03-1.5)
